According to patent US20040198743A1 (Schering Corporation, priority 2003, published 2004):
pKi: −log10 of the molar value. Where “and” joins values, the source holds several entries; their conditions need not be identical. Equal values may be shown once.

Assays:
Histamine Receptor H3 = biological target: T1, Histamine Receptor H3 (Homo sapiens, UniProt Q9Y5N1); test: Membrane binding assay, [3H]-N'-methylhistamine for H3 binding
T1 construct: expressed in transfected cells; host or cells: HEK293
T1 sequence (Q9Y5N1 whole entry): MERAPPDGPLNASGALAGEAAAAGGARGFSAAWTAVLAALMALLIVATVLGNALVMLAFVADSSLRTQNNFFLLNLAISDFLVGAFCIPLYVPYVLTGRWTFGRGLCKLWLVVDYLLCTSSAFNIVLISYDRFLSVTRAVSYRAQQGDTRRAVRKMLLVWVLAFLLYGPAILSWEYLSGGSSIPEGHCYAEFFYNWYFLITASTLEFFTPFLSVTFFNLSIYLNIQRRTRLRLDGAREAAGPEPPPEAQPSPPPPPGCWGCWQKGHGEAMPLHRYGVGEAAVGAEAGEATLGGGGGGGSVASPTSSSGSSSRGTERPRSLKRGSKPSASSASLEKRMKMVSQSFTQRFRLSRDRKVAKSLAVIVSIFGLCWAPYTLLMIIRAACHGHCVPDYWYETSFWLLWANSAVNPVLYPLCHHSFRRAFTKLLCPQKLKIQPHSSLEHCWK
Protocol: (§1) Materials. Rat and guinea-pig brains were obtained frozen from Rockland Immunochemicals (Gilbertsville, Pa.). Cell lines expressing recombinant human receptors were generated by using standard transfection techniques. The following radioligands were obtained from Dupont NEN (Boston, Mass.): [^3H]-pyrilamine, 23 Ci/mmol for H 1 binding and [^3H]-N′-methylhistamine, 82 Ci/mmol for H3 binding.
(§2) Methods. Recombinant cell lines (i.e., human H1—CHO cells and human H3-HEK293) were cultured in Dulbecco's modified Eagle's medium/10% fetal bovine serum supplemented with 2 mM glutamine, penicillin (100 U/ml), and streptomycin (100 μg/ml) in a humidified 5% CO2 atmosphere at 37° C. Selection was maintained with 0.5 mg geneticin/ml. Cells were harvested for membrane preparation by aspirating media, replacing it with Hanks' balanced salt solution/5 mM EDTA, and incubating flasks for 10 minutes at 37° C. Cells were pelleted by centrifugation at 1000×g for ten minutes at 4° C.
(§3) Membrane preparation. Membranes were prepared by disrupting cells or tissue in at least ten volumes of ice-cold 50 mM Tris-HCl, pH 7.5 at 25° C., with a Polytron. Homogenates were centrifuged ten minutes at 1000×g and the supernatants were then centrifuged for ten minutes at 50,000×g. Pellets from this centrifugation step were resuspended with a Polytron, a sample was taken for protein determination (BCA; Pierce; Rockford, Ill.), and the resuspension was again centrifuged at 50,000×g. Brain membranes were stored as pellets, cell membranes as suspensions of 1 mg protein/ml Tris buffer at −20° C.
(§4) Binding assays. […] Nonspecific binding was determined in the presence of 10^−6 M chlorpheniramine for H1 binding or 10^−6 M clobenpropit for H3 binding. Assay mixtures were incubated for 30 minutes at 30° C. in polypropylene, 96-well, deep-well plates then filtered through 0.3% polyethylenimine-soaked GF/B filters. These were washed three times with 1.2 ml of Tris buffer, dried in a microwave oven, impregnated with Meltilex wax scintillant and counted at 40% efficiency in a Betaplate scintillation counter (Wallac). IC50 values were determined by interpolation or by nonlinear, least-squares, curve-fitting with the Prism program (GraphPad Software). Ki values were determined in the manner of Cheng and prusoff (Cheng, et al., (1973) Biochem. Pharm. 22:3099-3108).

[1] = test system: cutaneous microvascular permeability produced by compound 48/80; test: Cutaneous microvascular permeability (Evans blue extravasation) elicited by intradermal compound 48/80; type: in vivo, guinea pig; settings: for effect on baseline Evans blue leakage (dye leakage due to i.d. saline administration): CTM 1.0 mg/kg, THIO 1.0 mg/kg, CLOB 0.3 mg/kg, i.v.; for effect of H3 antagonist alone on cutaneous permeability elicited by compound 48/80: THIO 1.0 mg/kg i.v., CLOB 0.3 mg/kg i.v., given alone; for % Inhibition of Compound 48/80 Skin Responses: treatment i.v. 10 minutes before, each drug 1 mg/kg in Table 3, mean ± SEM
Histamine Receptor H1 = biological target: T2, Histamine Receptor H1 (Homo sapiens, UniProt P35367); test: Membrane binding assay, [3H]-pyrilamine for H1 binding
T2 construct: expressed in transfected cells; host or cells: CHO
T2 sequence (P35367 whole entry): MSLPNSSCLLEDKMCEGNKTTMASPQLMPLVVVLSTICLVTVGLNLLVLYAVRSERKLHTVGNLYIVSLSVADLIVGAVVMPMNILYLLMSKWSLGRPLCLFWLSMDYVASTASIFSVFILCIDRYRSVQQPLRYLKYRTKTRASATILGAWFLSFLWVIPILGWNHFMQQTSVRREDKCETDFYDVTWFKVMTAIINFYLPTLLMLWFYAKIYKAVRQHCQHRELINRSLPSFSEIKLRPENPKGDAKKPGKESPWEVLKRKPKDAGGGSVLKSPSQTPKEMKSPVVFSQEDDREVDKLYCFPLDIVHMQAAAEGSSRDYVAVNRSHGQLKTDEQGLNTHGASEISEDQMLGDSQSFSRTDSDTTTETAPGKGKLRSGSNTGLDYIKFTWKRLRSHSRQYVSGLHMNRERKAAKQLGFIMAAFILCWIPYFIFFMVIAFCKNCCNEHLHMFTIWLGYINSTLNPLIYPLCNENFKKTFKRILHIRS
Protocol: as §1, §2, §3, §4

| SMILES | pKi (Histamine Receptor H3) | pKi (Histamine Receptor H1) | further results |
| --- | --- | --- | --- |
| S=C(NC1CCCCC1)N1CCC(c2cnc[nH]2)CC1 [Thioperamide, thioperamide] | – | – | effect on baseline Evans blue leakage (dye leakage due to i.d. saline administration) [1]: Neither CTM (1.0 mg/kg, i.v.), THIO (1.0 mg/kg, i.v.) nor CLOB (0.3 mg/kg, i.v.) had any effect; effect of H3 antagonist alone on cutaneous permeability elicited by compound 48/80 ([1]; listed as THIO): no observable effect; effect of H3 antagonist alone on cutaneous permeability elicited by compound 48/80 ([1]; listed as thioperamide): does not alter |
| O=C(CCN1CCC(Cc2c[nH]cn2)CC1)Nc1cccc(Cl)c1 [Formula 20] | 9.10 | 6.48 | – |
| O=S(=O)(c1ccc(Cl)cc1)N1CCC(CCc2c[nH]cn2)C1 (stereo not shown) [Formula 21] | 8.22 | 6.18 | – |
| CN(C)CCC(c1ccc(Cl)cc1)c1ccccn1 (stereo not shown) [CTM, chlorpheniramine] | – | – | effect on baseline Evans blue leakage (dye leakage due to i.d. saline administration) [1]: Neither CTM (1.0 mg/kg, i.v.), THIO (1.0 mg/kg, i.v.) nor CLOB (0.3 mg/kg, i.v.) had any effect; % Inhibition of Compound 48/80 Skin Responses ([1]; cpd 48/80 0.0003% i.d.): 17%±4% and 17.3 ± 3.6%; % Inhibition of Compound 48/80 Skin Responses ([1]; cpd 48/80 0.001% i.d.): 31%±4% and 31.5 ± 3.7 %; % Inhibition of Compound 48/80 Skin Responses ([1]; cpd 48/80 0.003% i.d.): 32%±4% and 31.8 ± 3.8 %; % Inhibition of Compound 48/80 Skin Responses ([1]; cpd 48/80 0.01% i.d.): 37%±4% and 36.7 ± 3.8 % |
| CC(C)(C)CCC#C[C@@H]1C[C@H]1c1c[nH]cn1 [Formula 19] | 8.52 | – | – |
| O=C(c1ccccn1)N1CCC(Cc2c[nH]cn2)CC1 [Formula 18] | 8.70 | – | – |
| c1nc(CC2CCN(CCCOc3ccc(CN4CCCCC4)cc3)CC2)c[nH]1 [Formula 22] | 8.52 | 7.54 | – |
| O=C(c1cnc2ccccc2c1)N1CCC(Cc2c[nH]cn2)CC1 [Formula 17] | 7.26 | – | – |
| NC(=NCc1ccc(Cl)cc1)SCCCc1cnc[nH]1 [Clobenpropit, clobenpropit] | – | – | effect on baseline Evans blue leakage (dye leakage due to i.d. saline administration) [1]: Neither CTM (1.0 mg/kg, i.v.), THIO (1.0 mg/kg, i.v.) nor CLOB (0.3 mg/kg, i.v.) had any effect; effect of H3 antagonist alone on cutaneous permeability elicited by compound 48/80 ([1]; listed as CLOB): no observable effect; effect of H3 antagonist alone on cutaneous permeability elicited by compound 48/80 ([1]; listed as clobenpropit): does not alter |

More lines, main results first:

| pKi (Histamine Receptor H3) | pKi (Histamine Receptor H1) | SMILES | further results |
| --- | --- | --- | --- |
| 7.72 | – | c1ccc2c(c1)C1CC(CNCCCCc3c[nH]cn3)C2c2ccccc21 (stereo not shown) [Formula 27] | – |
| 9.15 | – | O=C(CCN1CCC(Cc2c[nH]cn2)CC1)NCCc1ccc(Cl)cc1 [Formula 23] | – |
| 8.00 | 6.51 | Clc1ccc(C(CCNCCCCc2c[nH]cn2)c2ccccn2)cc1 (stereo not shown) [Formula 28] | – |
| 7.82 | – | O=C(NCc1ccc(Cc2c[nH]cn2)cc1)Nc1cc(Cl)cc(Cl)c1 [Formula 24] | – |
| 8.52 | 8.70 | Clc1ccc(C(=C2CCN(CCCCc3c[nH]cn3)CC2)c2ccccn2)cc1 [Formula 26] | – |
| 6.33 | – | C/C(=C\C(=O)Nc1ccc(Cl)cc1)c1ccc(Cc2c[nH]cn2)cc1 [Formula 31] | – |
| 8.15 | – | O=C(/C=C/c1ccc(Cc2c[nH]cn2)cc1)NCCc1ccc(Cl)cc1 [Formula 33] | – |
| 8.10 | 8.30 | Clc1ccc(C(=C2CCN(CCCCCc3c[nH]cn3)CC2)c2ccccn2)cc1 [Formula 29] | – |
| 7.72 | – | O=C(NCCCCc1c[nH]cn1)C1(c2ccc(Cl)cc2)CCC1 [Formula 32] | – |
| 7.77 | – | CC(C)(C)c1ccc(S(=O)(=O)NCCCCc2c[nH]cn2)cc1 [Formula 30] | – |
| 8.40 | – | CN1CCC(N(C)Cc2ccc(OCCCN3CCC(Cc4c[nH]cn4)CC3)cc2)CC1 [Formula 25] | – |
